# In PubChem BioAssay AID1745844 (Carcinogenic Potency Database (CPDB), 2022):
# Calls of active or inactive are those of the source. The rule behind the calls is not given here.
# System: rodent lifetime carcinogenesis bioassay, tumor incidence TD50
# Assay: carcinogenic potency in animals, long-term in vivo studies, CPDB compilation (AID 1745844)
smiles,measurement,setting,value
[Cl][Cd][Cl],carcinogen call,"hamster, strain Syrian Golden, females, inhaled, site: lung, lesion: one or several types, types not named, dosed 60 weeks, study length 76 weeks",negative (inactive)
same,carcinogen call,"hamster, strain Syrian Golden, females, inhaled, site: lung, lesion: one or several types, types not named, dosed 64 weeks, study length 76 weeks",negative (inactive)
same,carcinogen call,"hamster, strain Syrian Golden, males, inhaled, site: lung, lesion: one or several types, types not named, dosed 60 weeks, study length 102 weeks",negative (inactive)
same,carcinogen call,"hamster, strain Syrian Golden, males, inhaled, site: lung, lesion: one or several types, types not named, dosed 64 weeks, study length 113 weeks",negative (inactive)
same,carcinogen call,"mouse, strain NMRI, females, inhaled, site: lung, lesion: adenocarcinoma, dosed 42 weeks, study length 82 weeks",negative (inactive)
same,carcinogen call,"mouse, strain NMRI, females, inhaled, site: lung, lesion: adenocarcinoma, dosed 69 weeks, study length 89 weeks",negative (inactive)
same,carcinogen call,"mouse, strain NMRI, females, inhaled, site: lung, lesion: adenoma, dosed 42 weeks, study length 82 weeks",negative (inactive)
same,carcinogen call,"mouse, strain NMRI, females, inhaled, site: lung, lesion: adenoma, dosed 69 weeks, study length 89 weeks",negative (inactive)
same,carcinogen call,"mouse, strain NMRI, females, inhaled, site: lung, lesion: several types, types named in the paper, dosed 42 weeks, study length 82 weeks",negative (inactive)
same,carcinogen call,"mouse, strain NMRI, females, inhaled, site: lung, lesion: several types, types named in the paper, dosed 69 weeks, study length 89 weeks",negative (inactive)
same,carcinogen call,"rat, strain BOR:WISW (Wistar), females, in feed, site: kidney, lesion: one or several types, types not named, dosed 72 weeks, study length 72 weeks",negative (inactive)
same,carcinogen call,"rat, strain BOR:WISW (Wistar), males, in feed, site: kidney, lesion: one or several types, types not named, dosed 72 weeks, study length 72 weeks",negative (inactive)
same,TD50,"rat, strain NBL/Cr, males, in drinking water, site: adrenal gland, lesion: pheochromocytoma, benign/malignant, dosed 102 weeks, study length 102 weeks",686 mg/kg/day
same,TD50,"rat, strain NBL/Cr, males, in drinking water, site: kidney/pelvis, lesion: transitional-cell carcinoma, dosed 102 weeks, study length 102 weeks",584 mg/kg/day
same,TD50,"rat, strain NBL/Cr, males, in drinking water, site: kidney, lesion: lipoma, dosed 102 weeks, study length 102 weeks",584 mg/kg/day
same,TD50,"rat, strain NBL/Cr, males, in drinking water, site: kidney, lesion: malignant mesenchymal tumor, dosed 102 weeks, study length 102 weeks",193 mg/kg/day
same,TD50,"rat, strain NBL/Cr, males, in drinking water, site: kidney, lesion: several types, types named in the paper, dosed 102 weeks, study length 102 weeks",114 mg/kg/day
same,TD50,"rat, strain Wistar W.74, females, in feed, site: any site (literature study), lesion: benign tumor, dosed 104 weeks, study length 105 weeks",44 mg/kg/day (inactive)
same,TD50,"rat, strain Wistar W.74, females, in feed, site: any site (literature study), lesion: malignant tumor, dosed 104 weeks, study length 105 weeks",124 mg/kg/day (inactive)
same,TD50,"rat, strain Wistar W.74, females, in feed, site: any site (literature study), lesion: several types, types named in the paper, dosed 104 weeks, study length 105 weeks",21.6 mg/kg/day (inactive)
same,carcinogen call,"rat, strain Wistar W.74, females, in feed, site: liver, lesion: hepatoma, dosed 104 weeks, study length 105 weeks",negative (inactive)
same,TD50,"rat, strain Wistar W.74, males, in feed, site: adrenal gland, lesion: pheochromocytoma, dosed 104 weeks, study length 105 weeks",1.33 mg/kg/day (inactive)
same,carcinogen call,"rat, strain Wistar W.74, males, in feed, site: any site (literature study), lesion: benign tumor, dosed 104 weeks, study length 105 weeks",negative (inactive)
same,TD50,"rat, strain Wistar W.74, males, in feed, site: any site (literature study), lesion: malignant tumor, dosed 104 weeks, study length 105 weeks",47.4 mg/kg/day (inactive)
same,carcinogen call,"rat, strain Wistar W.74, males, in feed, site: any site (literature study), lesion: several types, types named in the paper, dosed 104 weeks, study length 105 weeks",negative (inactive)
same,carcinogen call,"rat, strain Wistar W.74, males, in feed, site: liver, lesion: hepatoma, dosed 104 weeks, study length 105 weeks",negative (inactive)
same,TD50,"rat, strain Wistar, females, inhaled, site: lung, lesion: adenocarcinoma, dosed 26 weeks, study length 126 weeks",0.206 mg/kg/day
same,TD50,"rat, strain Wistar, females, inhaled, site: lung, lesion: adenocarcinoma, dosed 78 weeks, study length 134 weeks",0.0253 mg/kg/day
same,TD50,"rat, strain Wistar, females, inhaled, site: lung, lesion: adenosquamous carcinoma, dosed 78 weeks, study length 134 weeks",0.106 mg/kg/day
same,TD50,"rat, strain Wistar, females, inhaled, site: lung, lesion: alveolar/bronchiolar adenoma, dosed 78 weeks, study length 134 weeks",0.0495 mg/kg/day
same,TD50,"rat, strain Wistar, females, inhaled, site: lung, lesion: several types, types named in the paper, dosed 26 weeks, study length 126 weeks",0.0645 mg/kg/day
same,TD50,"rat, strain Wistar, females, inhaled, site: lung, lesion: several types, types named in the paper, dosed 78 weeks, study length 134 weeks",0.00971 mg/kg/day
same,TD50,"rat, strain Wistar, females, inhaled, site: lung, lesion: squamous-cell tumor, dosed 26 weeks, study length 126 weeks",0.0998 mg/kg/day
same,carcinogen call,"rat, strain Wistar, males, in feed, site: all sites, lesion: lymphocytic leukemia, dosed 77 weeks, study length 77 weeks",positive
same,TD50,"rat, strain Wistar, males, in feed, site: prostate, lesion: adenoma, dosed 77 weeks, study length 77 weeks",56.9 mg/kg/day
same,TD50,"rat, strain Wistar, males, in feed, site: testis, lesion: interstitial-cell tumor, benign, dosed 77 weeks, study length 77 weeks",31.6 mg/kg/day
same,TD50,"rat, strain Wistar, males, inhaled, site: adrenal gland, lesion: pheochromocytoma, benign/malignant, dosed 78 weeks, study length 134 weeks",0.591 mg/kg/day
same,TD50,"rat, strain Wistar, males, inhaled, site: lung, lesion: adenocarcinoma, dosed 26 weeks, study length 130 weeks",0.0294 mg/kg/day
same,TD50,"rat, strain Wistar, males, inhaled, site: lung, lesion: adenocarcinoma, dosed 78 weeks, study length 130 weeks",0.00924 mg/kg/day
same,TD50,"rat, strain Wistar, males, inhaled, site: lung, lesion: adenocarcinoma, dosed 78 weeks, study length 134 weeks",0.022 mg/kg/day
same,TD50,"rat, strain Wistar, males, inhaled, site: lung, lesion: adenoma, dosed 78 weeks, study length 134 weeks",0.563 mg/kg/day
same,TD50,"rat, strain Wistar, males, inhaled, site: lung, lesion: adenosquamous carcinoma, dosed 78 weeks, study length 130 weeks",0.165 mg/kg/day
same,TD50,"rat, strain Wistar, males, inhaled, site: lung, lesion: alveolar/bronchiolar adenoma, dosed 26 weeks, study length 130 weeks",0.0521 mg/kg/day
same,TD50,"rat, strain Wistar, males, inhaled, site: lung, lesion: alveolar/bronchiolar adenoma, dosed 78 weeks, study length 130 weeks",0.0804 mg/kg/day
same,TD50,"rat, strain Wistar, males, inhaled, site: lung, lesion: carcinoma, dosed 78 weeks, study length 134 weeks",0.0127 mg/kg/day
same,TD50,"rat, strain Wistar, males, inhaled, site: lung, lesion: epidermoid carcinoma, dosed 78 weeks, study length 134 weeks",0.0588 mg/kg/day
same,TD50,"rat, strain Wistar, males, inhaled, site: lung, lesion: muco-epidermoid carcinoma, dosed 78 weeks, study length 134 weeks",0.315 mg/kg/day
same,TD50,"rat, strain Wistar, males, inhaled, site: lung, lesion: several types, types named in the paper, dosed 26 weeks, study length 130 weeks",0.0106 mg/kg/day
same,TD50,"rat, strain Wistar, males, inhaled, site: lung, lesion: several types, types named in the paper, dosed 78 weeks, study length 130 weeks",0.00611 mg/kg/day
same,TD50,"rat, strain Wistar, males, inhaled, site: lung, lesion: squamous-cell tumor, dosed 26 weeks, study length 130 weeks",0.0521 mg/kg/day
O=C1C2(Cl)C3(Cl)C4(Cl)C(Cl)(Cl)C5(Cl)C3(Cl)C1(Cl)C5(Cl)C24Cl (stereo unspecified),TD50,"mouse, strain B6C3F1, females, in feed, site: any site (literature study), lesion: several types, types named in the paper, dosed 80 weeks, study length 90 weeks",1.57 mg/kg/day
same,TD50,"mouse, strain B6C3F1, females, in feed, site: liver, lesion: hepatocellular adenoma + hepatocellular carcinoma + neoplastic nodule, dosed 80 weeks, study length 90 weeks",1.62 mg/kg/day
same,TD50,"mouse, strain B6C3F1, females, in feed, site: liver, lesion: hepatocellular carcinoma, dosed 80 weeks, study length 90 weeks",1.62 mg/kg/day
same,TD50,"mouse, strain B6C3F1, males, in feed, site: any site (literature study), lesion: several types, types named in the paper, dosed 80 weeks, study length 89 weeks",0.705 mg/kg/day
same,TD50,"mouse, strain B6C3F1, males, in feed, site: liver, lesion: hepatocellular adenoma + hepatocellular carcinoma + neoplastic nodule, dosed 80 weeks, study length 89 weeks",0.705 mg/kg/day
same,TD50,"mouse, strain B6C3F1, males, in feed, site: liver, lesion: hepatocellular carcinoma, dosed 80 weeks, study length 89 weeks",0.705 mg/kg/day
same,TD50,"mouse, strain B6C3F1, males, in feed, site: lung, lesion: alveolar/bronchiolar adenoma + alveolar/bronchiolar carcinoma, dosed 80 weeks, study length 89 weeks",29.3 mg/kg/day
same,TD50,"rat, strain Osborne-Mendel, females, in feed, site: any site (literature study), lesion: several types, types named in the paper, dosed 80 weeks, study length 109 weeks",1.83 mg/kg/day
same,TD50,"rat, strain Osborne-Mendel, females, in feed, site: liver, lesion: hepatocellular adenoma + hepatocellular carcinoma + neoplastic nodule, dosed 80 weeks, study length 109 weeks",2.96 mg/kg/day
same,TD50,"rat, strain Osborne-Mendel, males, in feed, site: any site (literature study), lesion: several types, types named in the paper, dosed 80 weeks, study length 109 weeks",1.42 mg/kg/day (inactive)
same,TD50,"rat, strain Osborne-Mendel, males, in feed, site: liver, lesion: hepatocellular adenoma + hepatocellular carcinoma + neoplastic nodule, dosed 80 weeks, study length 109 weeks",2.49 mg/kg/day
same,TD50,"rat, strain Sprague-Dawley, males, in feed, site: liver, lesion: neoplastic nodule, dosed 91 weeks, study length 91 weeks",0.199 mg/kg/day
FCCl,TD50,"rat, strain Alpk:APfSD, females, by gavage, site: stomach, lesion: carcinoma, dosed 52 weeks, study length 108 weeks",2710 mg/kg/day
same,TD50,"rat, strain Alpk:APfSD, females, by gavage, site: stomach, lesion: fibrosarcoma, dosed 52 weeks, study length 108 weeks",119 mg/kg/day
same,TD50,"rat, strain Alpk:APfSD, females, by gavage, site: stomach, lesion: sarcoma, dosed 52 weeks, study length 108 weeks",2710 mg/kg/day
same,TD50,"rat, strain Alpk:APfSD, females, by gavage, site: stomach, lesion: several types, types named in the paper, dosed 52 weeks, study length 108 weeks",26.5 mg/kg/day
same,TD50,"rat, strain Alpk:APfSD, females, by gavage, site: stomach, lesion: squamous-cell carcinoma, dosed 52 weeks, study length 108 weeks",69.4 mg/kg/day
same,TD50,"rat, strain Alpk:APfSD, males, by gavage, site: stomach, lesion: fibrosarcoma, dosed 52 weeks, study length 100 weeks",88.1 mg/kg/day
same,TD50,"rat, strain Alpk:APfSD, males, by gavage, site: stomach, lesion: several types, types named in the paper, dosed 52 weeks, study length 100 weeks",28.5 mg/kg/day
same,TD50,"rat, strain Alpk:APfSD, males, by gavage, site: stomach, lesion: squamous-cell carcinoma, dosed 52 weeks, study length 100 weeks",46.9 mg/kg/day
N#[N+]c1cc(CCN)ccc1[O-],TD50,"rat, strain F344/DuCrj, males, in drinking water, site: oral cavity, lesion: squamous-cell carcinoma, dosed 116 weeks, study length 116 weeks",37.6 mg/kg/day
